Consider nine compounds from PubChem BioAssay (NCI).

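In this assay, cells in 96-well plates receive the compound at five concentrations for 48 hours. Endpoints are linearly interpolated between the surrounding concentrations. GI50 marks 50% less growth. TGI denotes the concentration required for complete inhibition of growth.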

What all share (assay): growth of human tumour cells (NCI), 48 h
Test [1] has as its system IGROV1 ovarian.
Test [2] relates to M14 melanoma.
Test [3] relates to MALME-3M melanoma.
The subject of test [4] is NCI-H226 lung.
The subject of test [5] is NCI-H460 lung.
For test [6], the system named is SF-539 CNS.
In test [7] the test system is SK-MEL-5 melanoma.
Test [8] relates to SK-OV-3 ovarian.
In test [9] the test system is UACC-62 melanoma.
The subject of test [10] is MDA-MB-231 breast.

On to `O=[N+]([O-])c1ccccc1S(=O)(=O)c1ccccc1`, for which the TGI in [1], in test [2], in test [3], in [4], in test [5] and in test [6] was greater than 100 µM in each case. In addition, the TGI in [7], in test [8] and in [9] was greater than 100 µM throughout.
As for `Cc1ccc(NC(=O)C(Cc2c[nH]c3ccccc23)NC(=O)Oc2ccccc2)cc1C` (configuration not stated), the TGI in test [1] was greater than 100 µM; in [2], greater than 100 µM; in test [3] it was 99.5 µM; in [10] it was greater than 100 µM; in [4] it was greater than 100 µM; in test [5] it was greater than 100 µM. Further, the TGI in test [6], in test [7], in [8] and in [9] was greater than 100 µM in each case.
Consider `O=S(OC12CC3CC(CC(C3)C1)C2)c1cc(Cl)cc(Cl)c1OCc1ccccc1` (configuration not stated), for which the TGI in test [2], in test [3], in test [5], in [6], in [8] and in test [9] was greater than 100 µM each time.
Take `Cc1cn(C2CC(N)C(C(=O)NCC(=O)O)O2)c(=O)[nH]c1=O` (configuration not stated): the TGI in test [1], in test [2], in test [3], in test [10], in test [4] and in test [5] was greater than 100 µM in each case. For the same compound, the TGI in test [7], in test [8] and in [9] was greater than 100 µM each time.
On to `CC1(C)C(=O)c2ccccc2OC1N1CCN(C2Oc3ccccc3C(=O)C2(C)C)CC1` (configuration not stated), for which the TGI in test [1], in [2], in [3], in test [10], in test [4] and in test [5] was greater than 100 µM throughout. For the same compound, the TGI in [7], in [8] and in test [9] was greater than 100 µM each time.
For the compound `COc1ccc(-c2ccc(-c3ccc(C(=N)N)nc3)s2)cc1Cl`, the GI50 is 1.78 µM in test [3]; 1.7 µM in [10]; 1.8 µM in test [5]; 1.74 µM in test [6]; 1.82 µM in test [7]; 1.75 µM in test [8]. Moreover, the TGI in test [3] was 3.32 µM; in test [10], 3.38 µM; in test [5], 3.36 µM; in test [6], 3.17 µM; in test [7], 3.32 µM; in test [8], 3.36 µM.
As to `Nc1ccccc1.[C-]#[O+].[C-]#[O+].[C-]#[O+].[C-]#[O+].[C-]#[O+].[Cr]`, the GI50 in test [1] was 5.53 µM; in test [2], 3.44 µM; in [3], 4.72 µM; in test [10], 5.79 µM; in test [4], greater than 10 µM; in test [5] it was 5.64 µM. The GI50 in [6] is 3.28 µM; in test [7], 1.53 µM; in test [8] it was 5.66 µM; in test [9], 2.42 µM. For the same compound, the TGI in [1], in test [2], in test [3], in test [10], in test [4] and in test [5] was greater than 10 µM in each case. Besides, the TGI in test [6] was greater than 10 µM; in test [7] it was 3.34 µM; in test [8] it was greater than 10 µM; in [9], 9.64 µM.
Turning to `COc1cc2oc(=O)cc(C)c2cc1O`, the TGI in test [1], in test [2], in test [3], in [10], in test [4] and in test [5] was greater than 100 µM each time. For the same compound, the TGI in [6] and in [7] was greater than 100 µM throughout.
Consider `C=CCN1C(=O)/C(=C/c2ccco2)N=C1SC1OC(COC(C)=O)C(OC(C)=O)C(OC(C)=O)C1OC(C)=O` (configuration not stated), for which the TGI in test [1], in [3], in test [10], in [4], in test [5] and in test [6] was greater than 100 µM in each case. In addition, the TGI in test [7], in test [8] and in test [9] was greater than 100 µM throughout.
